Test results reported in publication PMC11901818, “Salicylaldehyde Benzoylhydrazones with Anticancer Activity and Selectivity: Design, Synthesis, and In Vitro Evaluation” (Molecules, 2025).
Like-named read-outs stand apart in the source and are kept apart here.

What was measured:
[1] = test system: HL-60 cells (acute promyelocytic leukemia); assay: Mosmann MTT cell viability test, HL-60; format: cell-based, human; conditions: for IC50: Homo sapiens, HL-60, MTT, 72 h exposure, ± standard deviation; for Selectivity index (SI): IC50 HEK-293 / IC50 HL-60
Protocol: (§1) The anticancer activity of the dimethoxy hydrazone derivatives was tested against a panel of malignant human cell lines of different tissue origin and molecular characteristics, including several in vitro leukemia models (acute promyelocytic leukemia HL-60; bcr-abl+ chronic myeloid leukemia cell lines BV-173, K-562, and AR-230; and T-cell leukemia SKW-3), as well as the two major phenotypes of human breast adenocarcinoma (hormone-sensitive MCF-7 cells with high progesterone (PR) and estrogen receptor α (ERα) expression and triple-negative breast adenocarcinoma (TNBC) MDA-MB-231 lacking ERα, PR, and human epidermal growth factor receptor 2 (HER2)). The existence and degree of cancer selectivity of the tested compounds were evaluated against normal human embryonic kidney HEK-293 cells.
(§2) The spectrum of anti-tumor activity of the experimental compounds was assessed against human malignant cell lines of leukemic (HL-60, BV-173, K-562, AR-230, and SKW-3) and epithelial (MCF-7 and MDA-MB-231) origin, as well as normal human embryonic kidney cells (HEK-293). All cell lines were purchased from the German Collection of Microorganisms and Cell Cultures (DSMZ GmbH, Braunschweig, Germany), and cell cultures were maintained and grown in the appropriate medium specified by the provider and incubated under standard conditions of 37 °C and 5% humidified CO2 atmosphere.
(§3) The cytotoxicity assessment of the methoxysalicylaldehyde methoxybenzoylhydrazone series was performed using the Mosmann MTT method, a validated technique for evaluating cell viability. Cells in the exponential growth phase were harvested and seeded (100 µL/well) in 96-well plates at a suitable density (3 × 10^5 cells/well for suspension leukemic cultures and 1.5 × 10^5 cells/well for adherent epithelial cells). After a 24 h incubation period, the cells were treated with serial dilutions of the tested compounds within an appropriate concentration range. Following a 72 h exposure, an MTT substrate solution (5 mg/mL in PBS) was added to each well. After an additional 4 h incubation, purple insoluble formazan crystals formed. These crystals were then dissolved in an isopropyl alcohol solution containing 5% formic acid before measuring absorbance at 550 nm using a microplate reader Labexim LMR-1 (Vienna, Austria). The recorded absorbance values were blanked against MTT and isopropanol solution and normalized to the mean value of the untreated control (representing 100% cell viability). The experimental data were analyzed using non-linear regression analysis in GraphPad Prism® software 8.0 (San Diego, CA, USA), from which semi-logarithmic “dose–response” curves were constructed, and the half-inhibitory concentrations (IC50) of the tested compounds were calculated.

[2] = test system: BV-173 cells (bcr-abl+ chronic myeloid leukemia); assay: Mosmann MTT cell viability test, BV-173; format: cell-based, human; conditions: for IC50: Homo sapiens, BV-173, MTT, 72 h exposure, ± standard deviation; for Selectivity index (SI): IC50 HEK-293 / IC50 BV-173
Protocol: as §1, §2, §3

[3] = test system: K-562 cells (bcr-abl+ chronic myeloid leukemia); assay: Mosmann MTT cell viability test, K-562; format: cell-based, human; conditions: for IC50: Homo sapiens, K562, K-562, MTT, 72 h exposure, ± standard deviation; for Selectivity index (SI): IC50 HEK-293 / IC50 K-562
Protocol: as §1, §2, §3

[4] = test system: AR-230 cells (bcr-abl+ chronic myeloid leukemia); assay: Mosmann MTT cell viability test, AR-230; format: cell-based, human; conditions: for IC50: AR-230, MTT, 72 h exposure, ± standard deviation; for Selectivity index (SI): IC50 HEK-293 / IC50 AR-230
Protocol: as §1, §2, §3

[5] = test system: SKW-3 cells (T-cell leukemia); assay: Mosmann MTT cell viability test, SKW-3; format: cell-based, human; conditions: for IC50: SKW-3, MTT, 72 h exposure, ± standard deviation; for Selectivity index (SI): IC50 HEK-293 / IC50 SKW-3
Protocol: as §1, §2, §3

[6] = test system: MCF-7 cells (breast ER+ adenocarcinoma); assay: Mosmann MTT cell viability test, MCF-7; format: cell-based, human; conditions: for IC50: Homo sapiens, MCF7, MCF-7, MTT, 72 h exposure, ± standard deviation; for Selectivity index (SI): IC50 HEK-293 / IC50 MCF-7
Protocol: as §1, §2, §3

[7] = test system: MDA-MB-231 cells (TNBC); assay: Mosmann MTT cell viability test, MDA-MB-231; format: cell-based, human; conditions: for IC50: Homo sapiens, MDA-MB-231, MTT, 72 h exposure, ± standard deviation; for Selectivity index (SI): IC50 HEK-293 / IC50 MDA-MB-231
Protocol: as §1, §2, §3

[8] = test system: normal human embryonic kidney cells, HEK-293; assay: Mosmann MTT cell viability test, HEK-293 (selectivity); format: cell-based; conditions: HEK293, HEK-293 normal cells, 72 h exposure, ± standard deviation
Protocol: as §1, §2, §3

[9] = test system: leukemia cell lines (BV-173, K-562, SKW-3, AR-230, and HL-60); assay: MTT test, average over leukemia cell lines; format: cell-based, human; conditions: Avg. leukemia
Protocol: (§4) The ligand efficiencies (LEs), obtained by the ratio between pIC50 and the number of heavy atoms in the molecule, along with the selectivity indices (SIs), calculated by comparing IC50 of normal cells to IC50 of cancer cells, are presented in Table 4.
as §2, §3

[10] = test system: breast cancer cell lines (MCF-7, MDA-MB-231); assay: MTT test, average over breast cancer cell lines; format: cell-based, human; conditions: Avg. breast cancer
Protocol: as §4, §2
The cytotoxicity assessment of the methoxysalicylaldehyde methoxybenzoylhydrazone series was performed using the Mosmann MTT method, a validated technique for evaluating cell viability. Cells in the exponential growth phase were harvested and seeded (100 µL/well) in 96-well plates at a suitable density (3 × 10^5 cells/well for suspension leukemic cultures and 1.5 × 10^5 cells/well for adherent epithelial cells). After a 24 h incubation period, the cells were treated with serial dilutions of the tested compounds within an appropriate concentration range. […] These crystals were then dissolved in an isopropyl alcohol solution containing 5% formic acid before measuring absorbance at 550 nm using a microplate reader Labexim LMR-1 (Vienna, Austria). The recorded absorbance values were blanked against MTT and isopropanol solution and normalized to the mean value of the untreated control (representing 100% cell viability). The experimental data were analyzed using non-linear regression analysis in GraphPad Prism® software 8.0 (San Diego, CA, USA), from which semi-logarithmic “dose–response” curves were constructed, and the half-inhibitory concentrations (IC50) of the tested compounds were calculated.

[11] = test system: all cancer cell lines (five leukemia, MCF-7, MDA-MB-231); assay: MTT test, average over all cancer cell lines; format: cell-based, human; conditions: Avg. all cancers
Protocol: as §4, §2, §3

SMILES | IC50 [1] [µM] | Selectivity index (SI) [1] | IC50 [2] [µM] | Selectivity index (SI) [2] | IC50 [3] [µM] | Selectivity index (SI) [3] | IC50 ([4]; Homo sapiens, read-out: IC50) [µM] | Selectivity index (SI) [4] | IC50 ([5]; Homo sapiens, SKW3, 72 h) [µM] | Selectivity index (SI) [5] | IC50 [6] [µM] | Selectivity index (SI) [6] | IC50 [7] [µM] | Selectivity index (SI) [7] | IC50 [8] [µM] | Selectivity index (SI) [9] | Selectivity index (SI) [10] | Selectivity index (SI) [11] | IC50 [5] [µM] | IC50 [4]
COc1ccccc1C(=O)NN=Cc1cccc(OC)c1O [Compound 1, N′-(2-hydroxy-3-methoxybenzylidene)-2-methoxybenzohydrazide] | 11.2 ± 2.1 | >9 | 33.5 ± 3.4 | >3 | 20.4 ± 2.9 | >5 | 50.5 ± 6.6 | >2 | 4.3 ± 0.5 | >23 | 30.1 ± 3.2 | >3 | 22 ± 2.8 | >5 | > 100 | >8 | >4 | >7 |  | 
COc1ccc(C(=O)NN=Cc2ccc(OC)cc2O)cc1 [Compound 5, N′-(2-hydroxy-4-methoxybenzylidene)-4-methoxybenzohydrazide] | 4.7 ± 0.5 | 2 | 1.4 ± 0.2 | 7 | 1.5 ± 0.1 | 7 | 1.1 ± 0.2 | 9 | < 1 | 21 | 21.3 ± 1.9 |  | 60.1 ± 5 |  | 10.4 ± 1.1 | 9 |  | 7 | 0.5 ± 0.1 | 
COc1ccc(C(=O)NN=Cc2cccc(OC)c2O)cc1 [Compound 3, N′-(2-hydroxy-3-methoxybenzylidene)-4-methoxybenzohydrazide] | 2.4 ± 0.1 | >42 | 2.7 ± 0.2 | >19 | 2.8 ± 0.4 | >36 | > 100 | >1 | 2.7 ± 0.3 | >37 | 36.1 ± 4.4 | >3 | 23.5 ± 3.4 | >4 | > 100 | >27 | >4 | >20 |  | not active
COc1cccc(C(=O)NN=Cc2cccc(OC)c2O)c1 [Compound 2, N′-(2-hydroxy-3-methoxybenzylidene)-3-methoxybenzohydrazide] | 3.6 ± 0.3 | 5 | 2.7 ± 0.2 | 6 | 2.1 ± 0.1 | 8 | 5.9 ± 0.7 | 3 | 1.4 ± 0.1 | 12 | 25.6 ± 2.8 | 1 | 26.9 ± 3.3 | 1 | 16.8 ± 2.3 | 7 | 1 | 5 |  | 
COc1cccc(C(=O)NN=Cc2ccc(OC)cc2O)c1 [Compound 4, N′-(2-hydroxy-4-methoxybenzylidene)-3-methoxybenzohydrazide] | 2.1 ± 0.2 | 4 | 2.2 ± 0.3 | 4 | 1.6 ± 0.2 | 5 | 4.5 ± 0.4 | 2 | < 1 | 11 | 23.3 ± 2.7 |  | 19.8 ± 3.1 |  | 8.6 ± 1.5 | 5 |  | 4 | 0.8 ± 0.1 | 
